# According to patent US20210393742A1, “LONG-ACTING INTERLEUKIN-15 RECEPTOR AGONIST IN COMBINATION WITH ANOTHER PHARMACOLOGICALLY ACTIVE AGENT” (Nektar Therapeutics, priority 2018, published 2021):
# Key:
# Daudi B cell lymphoma = test: Daudi cell counts in bone marrow, low and high doses (Example 14); assay type: in vivo, mice; details: day 24, single agent
# Protocol: SCID mice (N=6/group) were intravenously inoculated with 10 million Daudi cells on Day 0 and treated with a single dose of a lower or higher dose of daratumumab (0.05 mg/kg or 5 mg/kg IP, 14 days following Daudi cell inoculation) and two doses of either lower or higher dose mono(methoxyPEG-N-butanamide)interleukin-15 (compound 1) (0.03 mg/kg or 0.6 mg/kg intravenously, one dose at each of 14 and 21 days after inoculation). Mice were also treated with the single agent therapies: daratumumab (0.05 mg/kg or 5 mg/kg IP, 14 days following Daudi cell inoculation) or two doses of mono(methoxyPEG-N-butanamide)40 kD interleukin-15 (compound 1) (0.03 mg/kg or 0.6 mg/kg intravenously, 14 and 21 days after inoculation). Daudi cell numbers in the bone marrow were assessed three days following the second dose of mono(methoxyPEG-N-butanamide)40 kD interleukin-15 (day 24) by flow cytometry as shown in FIGS. 17A and 17B.
# NK cells [1] = test: CD16 surface expression on bone marrow NK cells of Daudi lymphoma bearing mice (Example 10); assay type: in vivo; details: bone marrow day 24
# Protocol: (§1) Balb/c mice bearing Daudi B cell lymphoma tumors in the bone marrow (n=6/group) were intraperitoneally administered a single 0.5 mg/kg dose of the human CD38 protein targeting clinical antibody daratumumab (DARZALEX®, Janssen Biotech) or a nonspecific control antibody with a matching isotype on day 14 after Daudi cell intravenous inoculation. Additional groups were treated with (i) mono(mPEG-N-butanamide)40 kD interleukin-15 (Conjugate 1) administered subcutaneously at a dose of 0.3 mg/kg as a single agent on days 14 and 21 after Daudi cell inoculation, or (ii) a combination treatment of Conjugate 1 administered subcutaneously at doses of 0.03 mg/kg or 0.3 mg/kg on days 14 and 21 after Daudi cell inoculation and daratumumab administered intraperitoneally at a dose of 0.5 mg/kg on day 14 after Daudi cell inoculation.
# Three days following the second Conjugate 1 administration (day 24 after Daudi inoculation), bone marrow was collected and the NK cell fraction was measured by flow cytometry in total bone marrow. The fraction of NK cells expressing the cell surface CD16 receptor that is known to mediate antibody dependent cellular cytotoxicity mechanism in the presence of tumor targeting antibodies, and the change in CD16 expression per cell basis on NK cells are shown in FIGS. 13A and 13B, respectively.
# FaDu cells = test: ADCC of cetuximab-coated FaDu cells by primed human NK cells (Example 20); assay type: cell-based; details: NK cells primed with 300 ng/mL overnight; cetuximab 300 ng/mL; E:T 10:1, 3 hours
# Protocol: Human NK cells were magnetically sorted from normal donor PBMCs using negative selection. NK cells were seeded in a 96-well U-bottom plate at a density of 400,000 cells/well. NK cells were stimulated with mono(methoxyPEG-N-butanamide)40 kD interleukin-15 (Compound 1) (300 ng/mL) (+) or left unstimulated (−) in complete RPMI-1640 media supplemented with 10% fetal bovine serum (FBS) and 1% antibiotic/antimycotic overnight at 37° C. in 5% CO2.
# The epithelial/pharyngeal head and neck human FaDu cells (ATCC #HTB-43) were cultured in minimal eagle's essential media (EMEM; ATCC+30-2003) supplemented with 10% fetal bovine serum (FBS) and 1% antibiotic/antimycotic at 37° C. in 5% CO2. FaDu cells were subcultured by incubating in 0.25% Trypsin-0.53 mM EDTA for 5 min at 37° C., washed in sterile PBS, resuspended in culture media, counted, and co-cultured with the NK cells using an effector:target (E:T) of 10:1. […] Following incubation, cells were washed in flow staining buffer, Fc-blocked for 15 min at 4° C., and surface-stained (CD45, CD56, CD3-fluorescently conjugated antibodies) for 20 min at 4° C. in the dark. The cells were washed in PBS and incubated in 7-aminoactinomycin (7-AAD) viability stain for 30 minutes at 4° C. before acquiring for flow cytometric analysis using a Fortessa (BD). […]
# CD56+ human NK cells = test: Human NK cell proliferation in CFSE labeled PBMCs (Example 5); assay type: cell-based; details: 5 days; Conjugate 1 100 ng/ml; plate coated with hIgG 0.1 mg/ml
# Protocol: NK cell proliferation within a human peripheral blood mononuclear cell (PBMCs) labeled with CFSE preparation was induced in vitro. The CFSE labeled PBMCs were incubated for 5 days in vitro in the presence of (i) mono(methoxyPEG-N-butanamide)40 kD interleukin-15 (Conjugate 1) at a concentration of 100 ng/ml; (ii) on cell culture plastic that had been prior coated overnight with human total immunoglobulin G (hIgG) solution at a concentration of 0.1 mg/ml (iii) on cell culture plastic that had been prior coated overnight with human total immunoglobulin G (hIgG) solution at a concentration of 0.1 mg/ml and in the presence of Conjugate 1 at a concentration of 100 ng/ml; or (iv) on regular cell culture plastic. After the incubation period, cell proliferation as indicated by the decrease of CFSE in the cells that had undergone cell doublings was measured with flow cytometry (FIGS. 8A-8D) measuring CFSE levels in CD56+ human NK cells within the PBMCs preparation in each of the four incubation conditions.
# [2] = test system: H1975 lung carcinoma cells; test: Tumor growth in H1975 lung tumor model (Example 17); assay type: in vivo, mice; details: day 27 after treatment initiation; cetuximab 0.25 mg/kg IP x3; Compound 1 0.3 mg/kg IV x3
# Protocol: Delay in loss of tumor growth control was evaluated on day 27 after treatment initiation.
# NK cells [3] = test: Granzyme B expression per cell in bone marrow NK cells of Daudi lymphoma bearing mice (Example 11); assay type: in vivo; details: bone marrow day 24; Conjugate 1 0.3 mg/kg; antibody 0.5 mg/kg
# Protocol: as §1, with “(DARZALEX®),” for “(DARZALEX®,”
# Three days following the second Conjugate 1 administration (day 24 after Daudi inoculation), bone marrow was collected and the NK cell fraction was measured by flow cytometry in total bone marrow.
# [4] = Conjugate 1 0.3 mg/kg, antibody 0.5 mg/kg
substance,measurement,setting,value
mono(methoxyPEG-N-butanamide)40 kD interleukin-15 [Conjugate 1],intra-bone marrow tumor cells depleted,Daudi B cell lymphoma; high dose (daratumumab 5 mg/kg; compound 1 0.6 mg/kg),69%
same,intra-bone marrow tumor cells depleted,Daudi B cell lymphoma; low dose (daratumumab 0.05 mg/kg; compound 1 0.03 mg/kg),42%
same,Fraction of NK cell expressing cell surface CD16 (mean value),"NK cells [1]; Conjugate 1 0.3 mg/kg SC days 14 and 21, antibody 0.5 mg/kg IP day 14",96%
same,CD16 mean fluorescence intensity (MFI mean value),NK cells [1]; [4],853
same,Relative CD16 expression compared to untreated condition,NK cells [1]; [4],1.8x increase
same,"ADCC, % 7-AAD+CD45- target cells",FaDu cells,enhance ADCC of cetuximab-coated human solid tumor cells
same,% CD56+ NK cells proliferating,CD56+ human NK cells,49.7%
same,tumor growth control,[2],no tumor growth inhibition
same,Granzyme B mean fluorescence intensity (MFI mean value),NK cells [3],2649
same,Relative Granzyme B expression compared to untreated condition,NK cells [3],6.7x increase
